Like-named read-outs stand apart in the source and are kept apart here. Marks after values point to notes of the source that are not given here. Square brackets hold non-standard residues; d marks the D form. Peptide text beside a SMILES is read from it. Nle = CCCC[C@H](N)C(=O)O; Abu = CC[C@H](N)C(=O)O
Tests used:
[1] = target: T1, soluble uPAR (Homo sapiens, UniProt Q03405); type: binding; set-up: sUPAR, soluble truncated form of the urokinase receptor; made in house; host or cells: baculovirus-infected Sf9 insect cells; details: for % Inhibition 2.5 uM: 2500.0; for % Inhibition 5 uM: 5000.0
Procedure: Streptavidin, 100 μl (0.1 mg/ml) in 50 mM Na2CO3, pH 9.6, was added to MaxiSorp wells (Nunc), incubated overnight at 4 C, and then washed with PBS/BSA. Biotinylated sUPAR (25 nM in PBS/BSA) was added to the wells and incubated for 2 hours at room temperature prior to washing. Competitive peptide inhibitors were added to the wells immediately prior to addition of the bacteriophage. The wells were incubated for one hour at room temperature, then washed and bound bacteriophage eluted with 6M urea in 0.1N HCl, pH 2.5. After 15 minutes, the urea eluate was brought to neutral pH by addition of 2M Tris base and the bacteriophage titers of input stocks and elutions measured by plaque formation assay. Results were expressed as the percent of input bacteriophage which bind to the wells. Alternatively, the amount of bacteriophage was determined in an ELISA where phage were preincubated with HRP-conjugated anti-M13 antibody for 30 minutes at room temperature before dispensing into wells prepared as above and incubated for one hour at room temperature. The final anti-M13 conjugate dilution was 1:4000. After washing, TMB substrate (100 μl/well) was added and color development was stopped with 0.8N H2SO4 (100 μl/well). The absorbance at 450 nm was then measured in a 96 well plate reader.
In a uPAR binding assay, the following analogs were tested in a competition with phage displaying either peptide 25 or peptide 9. The analogs comprise both natural and unnatural amino acids.
The analogs were tested in an assay utilizing soluble uPAR, similar to the method described in Example 2. The analogs were tested for their ability to compete with phage displaying either peptide 9 or peptide 25. Analogs 3–61 were tested in competition with peptide 25. Analogs 62–96 were tested in competition with peptide 9. Approximately 10^8 plaque forming units of the phage were used in the assay.
The analogs were tested at a concentration at 40 μM in the uPAR competition assay with phage displaying peptide 25. The results below show which analogs were active.
Analogs 31–61 were tested for their ability to compete with phage displaying peptide 25. The active analogs were tested further at two concentrations, 5 μM and 2.5 μM. These concentrations were calculated based on the synthesis reactions. However, the sequences * were further tested and determined to contain high amounts of amino acids and the quantity tested could have been higher than 5 μM or 2.5 μM.

[2] = target: T2, sUPAR domain 2–3 (D23) (Homo sapiens, UniProt Q03405); assay: Bacteriophage binding to sUPAR domain 2/3; details: phage-displayed peptide
T2 construct: domains 2 and 3 (amino acids 93–313); made in house; host or cells: baculovirus infected Sf9 insect cells
Procedure: FIG. 5. Bacteriophage binding to sUPAR domain 2/3. Phage were added to wells containing sUPAR domain 2/3 immobilized by its epitope tag via protein G and monoclonal antibody to the epitope tag. Wells containing protein G and antibody but no domain 2/3 were included to determine nonspecific phage binding. Urea-eluted phage and the input stocks were titered by plaque formation assay. Results were single point determinations calculated as a percent of the input titer and were repeated in three separate experiments.
It was also shown by the inventors that bacteriophage bound to sUPAR domain 2–3fragment. Protein G, 100μl, 1 mg/ml in 50 mM Na2CO3, pH9.6, was added to MaxiSorp wells, incubated overnight at 4° C. and then washed with PBS/BSA. Fifty μl of monoclonal antibody to the epitope tag EYMPME (SEQ ID NO: 18) was added at 1 mg/ml in PBS/BSA and incubated for 2 hours at room temperature. The wells were washed, recombinant sUPAR domain 2–3 (1.7 μM in PBS/BSA) was added and incubated for 1.5 hours at room temperature. The wells were washed prior to the addition of bacteriophage (approximately 10^8 pfu), and then treated as described in the previous section for binding to suPAR.

[3] = target: T1, soluble uPAR
Procedure: The analogs were tested for their ability to compete with phage displaying either peptide 9 or peptide 25. […] Approximately 10^8 plaque forming units of the phage were used in the assay.

[4] = target: T3, uPA1–48:uPAR complexes binding to vitronectin (Homo sapiens, UniProt Q03405); assay: Vitronectin binding assay (ELISA); details: 20 nM biotinylated suPAR, 20 nM uPA1–48
T3 construct: sUPAR, soluble truncated form of the urokinase receptor; made in house; host or cells: suPAR: baculovirus-infected Sf9 cells; uPA1-48: recombinant yeast; vitronectin: purified from human plasma
Procedure: Vitronectin was purified from human plasma by the method of Yatohgo et al, Cello Struct.and Funct. 13: 281–292 (1988). Purified vitronectin was diluted to 20 μg/ml in PBS containing 1 mM CaCl2 and 0.5 mM MgCl2, dispensed at 50 μl/well into Immulon II wells (Dynatech, Chantilly, Va.), incubated overnight at 4° C. and washed with PBS/BSA. Biotinylated sUPAR was diluted to 20 nM in PBS/BSA, incubated with or without test ligand for 30 minutes at room temperature (22° C.), dispensed at 100 μl/well and incubated for 90 minutes. Wells were then washed and horseradish peroxidase (HRP)-conjugated streptavidin was added at 0.4 μg/ml in PBS/2% BSA for 1 hour followed by washing and addition of 100 μl/well TMB substrate. The color development was stopped with 100 μl of 0.8N H2SO4 and the absorbance at 450 nm measured in a 96 well plate reader (Dynatech, Chantilly, Va.). Antagonistic effects of test ligands were measured as described above except the ligands were incubated with 20 nM biotinylated suPAR in the presence of 20 nM uPA1–48.
In order to analyze the effects of the various peptide ligands on the uPAR:vitronectin interaction, we developed an in vitro ELISA based assay for this interaction, in which biotinylated suPAR and uPA1–48 bind to immobilized, urea purified vitronectin, and the bound sUPAR is detected with HRP conjugated streptavidin. Under the conditions of the assay binding of biotinylated uPAR to vitronectin is strictly dependent on uPA1–48, as shown in FIG. 1.

T1 sequence (Q03405 23-305 limits assumed): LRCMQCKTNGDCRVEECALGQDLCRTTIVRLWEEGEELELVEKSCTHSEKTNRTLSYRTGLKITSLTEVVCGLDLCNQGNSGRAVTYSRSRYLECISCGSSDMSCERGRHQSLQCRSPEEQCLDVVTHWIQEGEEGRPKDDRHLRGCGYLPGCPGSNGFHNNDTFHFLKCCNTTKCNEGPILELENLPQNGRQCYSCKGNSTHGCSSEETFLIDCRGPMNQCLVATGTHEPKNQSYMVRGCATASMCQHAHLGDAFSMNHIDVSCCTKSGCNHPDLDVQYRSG
T3 sequence (Q03405 23-305 limits assumed, one chain of several): as the sequence (Q03405 23-305 limits assumed) above
T2 sequence (Q03405 115-335): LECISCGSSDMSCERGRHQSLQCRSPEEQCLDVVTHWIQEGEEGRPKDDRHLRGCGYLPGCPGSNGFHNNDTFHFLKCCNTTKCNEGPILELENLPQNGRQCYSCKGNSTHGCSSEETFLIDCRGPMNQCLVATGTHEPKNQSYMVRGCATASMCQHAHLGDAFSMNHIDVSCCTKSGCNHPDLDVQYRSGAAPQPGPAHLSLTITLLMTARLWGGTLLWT

Row | % Inhibition 2.5 uM [1] | % Inhibition 5 uM [1] [%] | Molecule | also measured
1 | 84* % | 91 | CCCC[C@H](NC(=O)[C@H](Cc1ccc(O)cc1)NC(=O)CNC(=O)[C@H](CC(C)C)NC(=O)[C@H](CO)NC(=O)[C@H](CC(C)C)NC(=O)[C@H](Cc1c[nH]cn1)NC(=O)[C@H](Cc1c[nH]cn1)NC(=O)[C@H](Cc1ccc(O)cc1)NC(=O)[C@@H](NC(=O)[C@H](CO)NC(=O)[C@H](CCC(=O)O)NC(=O)[C@H](C)N)[C@@H](C)O)C(=O)N[C@@H](Cc1ccc(O)cc1)C(=O)N[C@H](C(=O)N[C@@H](CC(C)C)C(=O)N[C@@H](CC(N)=O)C(N)=O)[C@@H](C)O [Analog 44, AESTYHHLSLGYJYTLN] (H-AESTYHHLSLGY[Nle]YTLN-NH2) | –
2 | 31% | 59 | CC[C@H](NC(=O)[C@H](Cc1ccc(O)cc1)NC(=O)CNC(=O)[C@H](CC(C)C)NC(=O)[C@H](CO)NC(=O)[C@H](CC(C)C)NC(=O)[C@H](Cc1c[nH]cn1)NC(=O)[C@H](Cc1c[nH]cn1)NC(=O)[C@H](Cc1ccc(O)cc1)NC(=O)[C@@H](NC(=O)[C@H](CO)NC(=O)[C@H](CCC(=O)O)NC(=O)[C@H](C)N)[C@@H](C)O)C(=O)N[C@@H](Cc1ccc(O)cc1)C(=O)N[C@H](C(=O)N[C@@H](CC(C)C)C(=O)N[C@@H](CC(N)=O)C(N)=O)[C@@H](C)O [Analog 45] (H-AESTYHHLSLGY[Abu]YTLN-NH2) | –
3 | 41% | 57 | CSCC[C@H](NC(=O)[C@H](Cc1ccc(O)cc1)NC(=O)CNC(=O)[C@H](CC(C)C)NC(=O)[C@H](CO)NC(=O)[C@H](CC(C)C)NC(=O)[C@H](Cc1c[nH]cn1)NC(=O)[C@H](Cc1c[nH]cn1)NC(=O)[C@H](Cc1ccc(O)cc1)NC(=O)[C@@H](NC(=O)[C@H](CO)NC(=O)[C@H](CCC(=O)O)NC(=O)[C@@H](C)N)[C@@H](C)O)C(=O)N[C@@H](Cc1ccc(O)cc1)C(=O)N[C@H](C(=O)N[C@@H](CC(C)C)C(=O)N[C@@H](CC(N)=O)C(N)=O)[C@@H](C)O [Analog 46] (H-[dA]ESTYHHLSLGYMYTLN-NH2) | –
4 | 35% | 61 | CSCC[C@H](NC(=O)[C@H](Cc1ccc(O)cc1)NC(=O)CNC(=O)[C@H](CC(C)C)NC(=O)[C@H](CO)NC(=O)[C@H](CC(C)C)NC(=O)[C@H](Cc1c[nH]cn1)NC(=O)[C@H](Cc1c[nH]cn1)NC(=O)[C@H](Cc1ccc(O)cc1)NC(=O)[C@@H](NC(=O)[C@H](CO)NC(=O)[C@@H](CCC(=O)O)NC(=O)[C@H](C)N)[C@@H](C)O)C(=O)N[C@@H](Cc1ccc(O)cc1)C(=O)N[C@H](C(=O)N[C@@H](CC(C)C)C(=O)N[C@@H](CC(N)=O)C(N)=O)[C@@H](C)O [Analog 47] (H-A[dE]STYHHLSLGYMYTLN-NH2) | –
5 | 73% | 86 | CSCC[C@H](NC(=O)[C@H](Cc1ccc(O)cc1)NC(=O)CNC(=O)[C@H](CC(C)C)NC(=O)[C@@H](CO)NC(=O)[C@H](CC(C)C)NC(=O)[C@H](Cc1c[nH]cn1)NC(=O)[C@H](Cc1c[nH]cn1)NC(=O)[C@H](Cc1ccc(O)cc1)NC(=O)[C@@H](NC(=O)[C@H](CO)NC(=O)[C@H](CCC(=O)O)NC(=O)[C@H](C)N)[C@@H](C)O)C(=O)N[C@@H](Cc1ccc(O)cc1)C(=O)N[C@H](C(=O)N[C@@H](CC(C)C)C(=O)N[C@@H](CC(N)=O)C(N)=O)[C@@H](C)O [Analog 54] (H-AESTYHHL[dS]LGYMYTLN-NH2) | –
6 | 56% | 80 | CSCC[C@H](NC(=O)[C@H](Cc1ccc(O)cc1)NC(=O)CNC(=O)[C@@H](CC(C)C)NC(=O)[C@H](CO)NC(=O)[C@H](CC(C)C)NC(=O)[C@H](Cc1c[nH]cn1)NC(=O)[C@H](Cc1c[nH]cn1)NC(=O)[C@H](Cc1ccc(O)cc1)NC(=O)[C@@H](NC(=O)[C@H](CO)NC(=O)[C@H](CCC(=O)O)NC(=O)[C@H](C)N)[C@@H](C)O)C(=O)N[C@@H](Cc1ccc(O)cc1)C(=O)N[C@H](C(=O)N[C@@H](CC(C)C)C(=O)N[C@@H](CC(N)=O)C(N)=O)[C@@H](C)O [Analog 55] (H-AESTYHHLS[dL]GYMYTLN-NH2) | –
7 | 22% | 75 | CSCC[C@H](NC(=O)[C@H](Cc1ccc(O)cc1)NC(=O)CNC(=O)[C@H](CC(C)C)NC(=O)[C@H](CO)NC(=O)[C@H](CC(C)C)NC(=O)[C@H](Cc1c[nH]cn1)NC(=O)[C@H](Cc1c[nH]cn1)NC(=O)[C@H](Cc1ccc(O)cc1)NC(=O)[C@@H](NC(=O)[C@H](CO)NC(=O)[C@H](CCC(=O)O)NC(=O)[C@H](C)N)[C@@H](C)O)C(=O)N[C@@H](Cc1ccc(O)cc1)C(=O)N[C@H](C(=O)N[C@H](CC(C)C)C(=O)N[C@@H](CC(N)=O)C(N)=O)[C@@H](C)O [Analog 60] (H-AESTYHHLSLGYMYT[dL]N-NH2) | –
8 | 32% | 55 | CSCC[C@H](NC(=O)[C@H](Cc1ccc(O)cc1)NC(=O)CNC(=O)[C@H](CC(C)C)NC(=O)[C@H](CO)NC(=O)[C@H](CC(C)C)NC(=O)[C@H](Cc1c[nH]cn1)NC(=O)[C@H](Cc1c[nH]cn1)NC(=O)[C@H](Cc1ccc(O)cc1)NC(=O)[C@@H](NC(=O)[C@H](CO)NC(=O)[C@H](CCC(=O)O)NC(=O)[C@H](C)N)[C@@H](C)O)C(=O)N[C@@H](Cc1ccc(O)cc1)C(=O)N[C@H](C(=O)N[C@@H](CC(C)C)C(=O)N[C@H](CC(N)=O)C(N)=O)[C@@H](C)O [Analog 61] (H-AESTYHHLSLGYMYTL[dN]-NH2) | –
9 | – | – | H-AEFFKLGPNGYVYLHSA-NH2 [peptide 9] | bacteriophage binding to immobilized D23 versus sUPAR [2]: bind equivalently to the D23 fragment and full-length receptor; % Inhibition 2.5 uM ([3]; 2500.0): 59%; % Inhibition 5 uM ([3]; 5000.0): 71%
10 | 38% | 47 | H-AESTFHHLSLGYMYTLN-NH2 [Analog 34] | –
11 | 63% | 82 | H-AESTYHHLSLGYVYTLN-NH2 [Analog 43] | –
12 | – | – | somatomedin B domain of vitronectin: recombinant somatomedin B domain of vitronectin (DQESCKGRCTEGFNVDKKCQCDELCSYYQSCCTDYTAECKPQVT) | effect on binding of uPA1–48:uPAR complexes to vitronectin [4]: blocked

Source: patent US7094752B2 (Chiron Corporation, priority 1997, dated 2006)
